Data from US20060194837A1, “Tetrahydroisoquinoline compounds” (priority 2004, published 2006).
Like-named read-outs stand apart in the source and are kept apart here.

Tests used:
human SERT = target: T1, human SERT (Homo sapiens, UniProt P31645); assay: Human SERT binding (3H-citalopram displacement); details: HEK293 membranes expressing human SERT, rt 1 h
T1 construct: expressed in transfected cells; host or cells: HEK293 membranes
Method: Homogenized HEK293 (Human Embryonic Kidney) membranes expressing the human SERT were incubated with ^3H-citalopram (SERT) at rt for 1 h in 50 mM Tris, 120 mM NaCl, 5 mM KCl (pH 7.4). […] The membranes were washed and the radioactivity was counted as above.

human H3 receptor [1] = target: T2, human H3 receptor (Homo sapiens, UniProt Q9Y5N1); assay: Cyclic AMP accumulation (β-galactosidase reporter, Schild analysis); format: cell-based; details: histamine agonist, forskolin 5 μM, Schild regression of pEC50 values
T2 construct: expressed in transfected cells
T2 sequence (Q9Y5N1 whole entry): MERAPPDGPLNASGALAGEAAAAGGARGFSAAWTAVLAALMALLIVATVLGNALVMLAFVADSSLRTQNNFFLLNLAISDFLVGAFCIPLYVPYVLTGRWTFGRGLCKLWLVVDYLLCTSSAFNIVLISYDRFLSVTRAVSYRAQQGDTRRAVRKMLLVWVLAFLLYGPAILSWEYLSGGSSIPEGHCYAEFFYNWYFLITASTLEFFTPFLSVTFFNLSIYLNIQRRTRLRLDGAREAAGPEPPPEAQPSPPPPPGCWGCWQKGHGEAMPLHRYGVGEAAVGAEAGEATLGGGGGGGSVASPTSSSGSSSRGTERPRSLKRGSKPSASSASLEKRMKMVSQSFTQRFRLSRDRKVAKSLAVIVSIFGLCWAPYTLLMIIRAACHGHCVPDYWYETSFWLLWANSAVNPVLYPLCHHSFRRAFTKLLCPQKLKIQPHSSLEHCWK
Method: Sublines of SK-N-MC cells were created that expressed a reporter construct and the human H3 receptor. The reporter gene (β-galactosidase) is under the control of multiple cyclic AMP responsive elements. In 96-well plates, histamine was added directly to the cell media followed 5 min later by an addition of forskolin (5 μM final concentration). When appropriate, antagonists were added 10 min prior to agonist addition. After a 6-h incubation at 37° C., the media was aspirated and the cells washed with 200 μL of phosphate-buffered saline followed by a second aspiration. Cells were lysed with 25 μL 0.1× assay buffer (10 mM Na-phosphate, pH 8, 0.2 mM MgSO4, 0.01 mM MnCl2) and incubated at rt for 10 min. […] Color was developed using 25 μL of 1 mg/mL substrate solution (chlorophenolred β-D galactopyranoside; Roche Molecular Biochemicals, Indianapolis, In.).

human H3 receptor [2] = target: T2, human H3 receptor; assay: H3 receptor binding (N-[3H]-α-methylhistamine displacement); details: membranes of SK-N-MC cells expressing cloned human H3 receptor, 0.8 nM N-[3H]-α-methylhistamine, 60 min at 25° C.
Rat SERT = target: T3, Rat SERT (Rattus norvegicus, UniProt P31652); assay: Rat brain SERT binding ([3H]-citalopram displacement); details: rat brain membranes without cerebellum, 0.6 nM [3H]-citalopram, 60 min at 25° C.
T3 construct: A rat brain without cerebellum (Zivic Laboratories, Inc.—Pittsburgh, Pa.) was homogenized; tissue Zivic Laboratories, Inc; host or cells: rat brain without cerebellum, membranes
T3 sequence (P31652 whole entry): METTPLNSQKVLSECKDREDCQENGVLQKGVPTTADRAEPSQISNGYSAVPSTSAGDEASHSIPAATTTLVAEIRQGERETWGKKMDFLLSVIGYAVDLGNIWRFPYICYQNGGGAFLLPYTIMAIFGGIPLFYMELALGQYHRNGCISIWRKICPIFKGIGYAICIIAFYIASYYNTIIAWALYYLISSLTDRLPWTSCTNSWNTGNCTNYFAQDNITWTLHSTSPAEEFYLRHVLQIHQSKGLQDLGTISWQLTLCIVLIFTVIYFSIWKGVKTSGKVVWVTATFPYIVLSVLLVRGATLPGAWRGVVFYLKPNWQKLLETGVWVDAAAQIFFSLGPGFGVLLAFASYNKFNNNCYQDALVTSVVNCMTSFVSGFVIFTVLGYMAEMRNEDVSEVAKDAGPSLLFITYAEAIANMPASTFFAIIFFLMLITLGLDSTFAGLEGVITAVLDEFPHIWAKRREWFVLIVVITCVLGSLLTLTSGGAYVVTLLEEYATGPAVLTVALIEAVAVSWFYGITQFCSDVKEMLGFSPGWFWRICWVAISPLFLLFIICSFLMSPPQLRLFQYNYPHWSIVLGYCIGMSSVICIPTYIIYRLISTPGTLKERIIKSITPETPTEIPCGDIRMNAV
Method: The supernatant was removed and re-centrifuged at 15,000 rpm for 30 min. […] Membranes were incubated with 0.6 nM [^3H]-Citalopram plus/minus test compounds for 60 min at 25° C. and harvested by rapid filtration over GF/C glass fiber filters (pretreated with 0.3% polyethylenimine) followed by four washes with ice-cold buffer.

[3] = pA2, SK-N-MC cells expressing human H3 receptor and CRE-β-galactosidase reporter
[4] = SK-N-MC cells expressing human H3 receptor and CRE-β-galactosidase reporter, read-out: pA2 (converted)

T1 sequence (P31645 whole entry): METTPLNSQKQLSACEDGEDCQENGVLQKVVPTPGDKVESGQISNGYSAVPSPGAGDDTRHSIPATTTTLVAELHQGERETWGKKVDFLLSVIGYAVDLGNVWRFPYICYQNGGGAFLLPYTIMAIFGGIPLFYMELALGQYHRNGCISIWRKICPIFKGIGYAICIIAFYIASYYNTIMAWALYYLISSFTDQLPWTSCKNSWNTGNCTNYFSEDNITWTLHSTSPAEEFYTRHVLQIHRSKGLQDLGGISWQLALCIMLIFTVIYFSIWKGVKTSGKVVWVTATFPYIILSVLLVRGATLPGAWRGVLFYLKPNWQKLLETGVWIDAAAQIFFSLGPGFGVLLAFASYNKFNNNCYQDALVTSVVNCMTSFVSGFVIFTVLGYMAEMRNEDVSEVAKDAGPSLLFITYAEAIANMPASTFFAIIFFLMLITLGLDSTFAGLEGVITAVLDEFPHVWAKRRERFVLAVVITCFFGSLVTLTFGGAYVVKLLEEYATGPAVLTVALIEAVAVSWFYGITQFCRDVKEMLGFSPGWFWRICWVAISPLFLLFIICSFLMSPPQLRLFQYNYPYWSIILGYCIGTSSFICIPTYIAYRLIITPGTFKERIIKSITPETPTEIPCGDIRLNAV

SMILES | Ki (human SERT) [nM] | Kb (human H3 receptor [1]; [3]) [nM] | Ki (human H3 receptor [2]) [nM] | Ki (Rat SERT; Rat SERT Ki (nM)) [nM] | Kb (human H3 receptor [1]; [4]) [nM] | Ki (Rat SERT; read-out: Rat SERT Ki) [nM]
CN1Cc2cc(OCCCN3CCCCC3)ccc2C(c2ccc(Cl)c(Cl)c2)C1 (stereo not drawn) [Example 76, 4-(3,4-Dichloro-phenyl)-2-methyl-7-(3-piperidin-1-yl-propoxy)-1,2,3,4-tetrahydro-isoquinoline] | 9 | 3.98 | 5 | 11 | – | –
COc1cccc(C2CN(C)Cc3cc(OCCCN4CCC(F)CC4)ccc32)c1 (racemic) [Example 44, 7-[3-(4-Fluoro-piperidin-1-yl)-propoxy]-4-(3-methoxyphenyl)-2-methyl-1,2,3,4-tetrahydro-isoquinoline] | 7 | – | 2 | – | 0.794 | 4
CSc1ccc(C2CN(C)Cc3cc(OCC4CN(C(C)C)C4)ccc32)cc1 (stereo not drawn) [Example 236, 7-(1-Isopropyl-azetidin-3-ylmethoxy)-2-methyl-4-(4-methylsulfanyl-phenyl)-1,2,3,4-tetrahydro-isoquinoline] | 9 | – | 10 | – | 7.94 | 6
CN1Cc2cc(OCCCN3CCC(F)CC3)ccc2C(c2ccc(OC(F)F)cc2)C1 (stereo not drawn) [Example 50, 4-(4-Difluoromethoxy-phenyl)-7-[3-(4-fluoro-piperidin-1-yl)-propoxy]-2-methyl-1,2,3,4-tetrahydro-isoquinoline] | 3 | 3.98 | 8 | – | – | 3
CN1Cc2cc(CCCCN3CCCCC3)ccc2C(c2cccnc2)C1 (stereo not drawn) [Example 273, 2-Methyl-7-(4-piperidin-1-yl-butyl)-4-pyridin-3-yl-1,2,3,4-tetrahydro-isoquinoline] | 158 | – | 5 | – | 2 | 47
CN1Cc2cc(OCCCN3CCOCC3)ccc2C(c2ccc(Cl)c(Cl)c2)C1 (stereo not drawn) [Example 77, 4-(3,4-Dichloro-phenyl)-2-methyl-7-(3-morpholin-4-yl-propoxy)-1,2,3,4-tetrahydro-isoquinoline] | 28 | 20 | 3 | – | – | 27
COc1cccc(C2CN(C)Cc3cc(OCCCN4CCC(F)CC4)ccc32)c1 (single isomer, unassigned) [Example 45A, 7-[3-(4-Fluoro-piperidin-1-yl)-propoxy]-4-(3-methoxyphenyl)-2-methyl-1,2,3,4-tetrahydro-isoquinoline] | 7 | – | 2 | – | 1.26 | 9
CN1Cc2cc(OCCCN3CCCCC3)ccc2C(c2ccc(C(F)(F)F)cc2)C1 (stereo not drawn) [Example 60] | 7 | – | 2 | – | 2.51 | 14
CN1Cc2cc(OCCCN3CCCCC3)ccc2C(c2cccnc2)C1 (stereo not drawn) [Example 59, 2-Methyl-7-(3-piperidin-1-yl-propoxy)-4-pyridin-3-yl-1,2,3,4-tetrahydro-isoquinoline] | 160 | – | 1 | – | 0.126 | 48
CN1Cc2cc(OCCCN3CCCCC3)ccc2C(c2ccsc2)C1 (stereo not drawn) [Example 57, 2-Methyl-7-(3-piperidin-1-yl-propoxy)-4-thiophen-3-yl-1,2,3,4-tetrahydro-isoquinoline] | 53 | – | 0.9 | – | 0.1 | 22
COc1ccc(C2CN(C)Cc3cc(C#CCCN4CCCCC4)ccc32)cc1 (stereo not drawn) [Example 275, 4-(4-Methoxy-phenyl)-2-methyl-7-(4-piperidin-1-yl-but-1-ynyl)-1,2,3,4-tetrahydro-isoquinoline] | 4 | – | 3 | – | 1.26 | 5
COc1ccc(C2CN(C)Cc3cc(OCCCN4[C@H](C)CC[C@H]4C)ccc32)cc1 (stereo partly drawn) [Example 11, 7-[3-((2R,5R)-trans-Dimethyl-pyrrolidin-1-yl)-propoxy]-4-(4-methoxy-phenyl)-2-methyl-1,2,3,4-tetrahydro-isoquinoline] | 5 | – | 0.6 | – | 0.398 | 2
COc1ccc(C2CN(C)Cc3cc(OCCCN4CCC(C#N)CC4)ccc32)cc1 (single isomer, unassigned) [Example 37B, 1-{3-[4-(4-Methoxy-phenyl)-2-methyl-1,2,3,4-tetrahydro-isoquinolin-7-yloxy]-propyl}-piperidine-4-carbonitrile] | 6 | – | 6 | – | 5.01 | 4
CCN(CC)CCCOc1ccc2c(c1)CN(C)CC2c1ccc(OC)cc1 (stereo not drawn) [Example 3, Diethyl-{3-[4-(4-methoxy-phenyl)-2-methyl-1,2,3,4-tetrahydro-isoquinolin-7-yloxy]-propyl}-amine] | 4 | 0.398 | 0.7 | – | – | 3
COc1ccc(C2CN(C)Cc3cc(OC[C@H]4CN(C(C)C)CCO4)ccc32)cc1 (single isomer, unassigned) [Example 256B, 7-(4-Isopropyl-morpholin-2R-ylmethoxy)-4-(4-methoxy-phenyl)-2-methyl-1,2,3,4-tetrahydro-isoquinoline] | 4 | – | 7 | – | 3.98 | 8
COc1ccc(C2CN(CCF)Cc3cc(OCCCN4CCCCC4)ccc32)cc1 (stereo not drawn) [Example 72, 2-(2-Fluoro-ethyl)-4-(4-methoxy-phenyl)-7-(3-piperidin-1-yl-propoxy)-1,2,3,4-tetrahydro-isoquinoline] | 29 | 0.794 | 1 | – | – | 15
c1cncc(C2CNCc3cc(CCCCN4CCCCC4)ccc32)c1 (stereo not drawn) [Example 272, 7-(4-Piperidin-1-yl-butyl)-4-pyridin-3-yl-1,2,3,4-tetrahydro-isoquinoline] | 3000 | – | 3 | – | 3.16 | 540
COc1cccc(C2CN(C)Cc3cc(OCCCN4CCC(F)CC4)ccc32)c1 (single isomer, unassigned) [Example 45B, 7-[3-(4-Fluoro-piperidin-1-yl)-propoxy]-4-(3-methoxyphenyl)-2-methyl-1,2,3,4-tetrahydro-isoquinoline] | 6 | – | 3 | – | 0.794 | 5
COc1ccc(C2CN(C)Cc3cc(OCCCN4CCCC(O)C4)ccc32)cc1 (mixture of isomers) [Example 20, 1-{3-[4-(4-Methoxy-phenyl)-2-methyl-1,2,3,4-tetrahydro-isoquinolin-7-yloxy]-propyl}-piperidin-3-ol] | 3 | – | 2 | – | 1 | 4
COc1ccc(C2CN(C)Cc3cc(OCC4CCN(C(C)C)CC4)ccc32)cc1 (stereo not drawn) [Example 83, 7-(1-Isopropyl-piperidin-4-ylmethoxy)-4-(4-methoxy-phenyl)-2-methyl-1,2,3,4-tetrahydro-isoquinoline] | 5 | – | 3 | – | 1.26 | 6
COc1ccc(C2CN(CCO)Cc3cc(OCCCN4CCCCC4)ccc32)cc1 (stereo not drawn) [Example 71, 2-[4-(4-Methoxy-phenyl)-7-(3-piperidin-1-yl-propoxy)-3,4-dihydro-1H-isoquinolin-2-yl]-ethanol] | 31 | – | 1 | – | 0.251 | 16
CN1Cc2cc(C#CCCN3CCCCC3)ccc2C(c2ccc(F)cc2)C1 (stereo not drawn) [Example 279, 4-(4-Fluoro-phenyl)-2-methyl-7-(4-piperidin-1-yl-but-1-ynyl)-1,2,3,4-tetrahydro-isoquinoline] | 98 | – | 6 | – | 3.16 | 90
COc1ccc(C2CN(C)Cc3cc(OCCCN4CCC(C#N)CC4)ccc32)cc1 (racemic) [Example 37, 1-{3-[4-(4-Methoxy-phenyl)-2-methyl-1,2,3,4-tetrahydro-isoquinolin-7-yloxy]-propyl}-piperidine-4-carbonitrile] | 6 | – | 9 | – | 6.31 | 8
COc1ccc(C2CN(C)Cc3cc(OCCCN4CCC(F)(F)CC4)ccc32)cc1 (stereo not drawn) [Example 8, 7-[3-(4,4-Difluoro-piperidin-1-yl)-propoxy]-4-(4-methoxy-phenyl)-2-methyl-1,2,3,4-tetrahydro-isoquinoline] | 8 | – | 4 | – | 5.01 | 6
